Experimental data taken from US12599136B2, “Substituted isophthalic acid diamides and their use as herbicides” (Bayer Aktiengesellschaft, priority 2020, dated 2026).

Key:
Format in all cases: in vivo
Setaria viridis [1] = test: Pre-emergence herbicidal action against SETVI; conditions: 80 g/ha
Outline: (§1)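 Visual rating at 3 weeks vs untreated pots; 0–100% scale, 100% = plants died. Treatment: aqueous WP/EC spray onto covering soil, 600–800 l/ha, 0.2% wetter, seeds in sandy loam.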

Matricaria inodora [2] = test: Pre-emergence herbicidal action against MATIN; conditions: visual score after 3 weeks vs untreated controls
Outline: as §1

Digitaria sanguinalis [3] = test: Post-emergence herbicidal action against DIGSA
Procedure: Seeds of monocotyledonous and dicotyledonous weed and crop plants are laid out in sandy loam soil in wood-fiber pots, covered with soil and cultivated in a greenhouse under good growth conditions. 2 to 3 weeks after sowing, the test plants are treated at the one-leaf stage. The compounds of the invention, formulated in the form of wettable powders (WP) or as emulsion concentrates (EC), are then sprayed onto the green parts of the plants in the form of an aqueous suspension or emulsion at a water application rate equivalent to 600 to 800 l/ha, with addition of 0.2% wetting agent. After the test plants have been left to stand in the greenhouse under optimal growth conditions for about 3 weeks, the action of the preparations is assessed visually in comparison to untreated controls (herbicidal action in percent (%): 100% activity=the plants have died, 0% activity=like control plants). […] The tables below illustrate, in an illustrative manner, the post-emergence herbicidal action of the compounds of the invention, the herbicidal activity being stated in percent.

Alopecurus myosuroides [4] = test: Post-emergence herbicidal action against ALOMY
Outline: (§2)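 Greenhouse pot plants in sandy loam were sprayed at the one-leaf stage, 2 to 3 weeks after sowing, with WP or EC formulations as aqueous suspension or emulsion (600 to 800 l/ha water, 0.2% wetting agent). About 3 weeks later, damage was scored visually against untreated controls as % action (100% = dead, 0% = like control).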

Amaranthus retroflexus [5] = test: Pre-emergence herbicidal action against AMARE; conditions: visual score after 3 weeks vs untreated controls
Outline: as §1

Alopecurus myosuroides [6] = test: Pre-emergence herbicidal action against ALOMY; conditions: 80 g/ha; visual score after 3 weeks vs untreated controls
Outline: as §1

Pharbitis purpurea = test: Post-emergence herbicidal action against PHBPU; conditions: visual assessment about 3 weeks after treatment
Outline: as §2

Echinochloa crus-galli [7] = test: Pre-emergence herbicidal action against ECHCG; conditions: 80 g/ha; visual score after 3 weeks vs untreated controls
Outline: as §1

Abutilon theophrasti [8] = test: Pre-emergence herbicidal action against ABUTH; conditions: visual score after 3 weeks vs untreated controls
Outline: as §1

Amaranthus retroflexus [9] = test: Post-emergence herbicidal action against AMARE; conditions: visual assessment about 3 weeks after treatment
Outline: as §2

Viola tricolor [10] = test: Post-emergence herbicidal action against VIOTR
Outline: as §2

Veronica persica = test: Pre-emergence herbicidal action against VERPE; conditions: 80 g/ha
Outline: as §1

Echinochloa crus-galli [11] = test: Post-emergence herbicidal action against ECHCG; conditions: visual assessment about 3 weeks after treatment
Outline: as §2

Avena fatua [12] = test: Post-emergence herbicidal action against AVEFA; conditions: 20 g/ha, visual assessment about 3 weeks after treatment
Outline: as §2

Setaria viridis [13] = test: Post-emergence herbicidal action against SETVI; conditions: visual assessment about 3 weeks after treatment
Outline: as §2

Viola tricolor [14] = test: Pre-emergence herbicidal action against VIOTR
Outline: as §1

Digitaria sanguinalis [15] = test: Pre-emergence herbicidal action against DIGSA
Outline: as §1

Abutilon theophrasti [16] = test: Post-emergence herbicidal action against ABUTH
Outline: as §2

Matricaria inodora [17] = test: Post-emergence herbicidal action against MATIN; conditions: 20 g/ha, visual assessment about 3 weeks after treatment
Outline: as §2

Avena fatua [18] = test: Pre-emergence herbicidal action against AVEFA; conditions: 80 g/ha; visual score after 3 weeks vs untreated controls
Outline: as §1

Row | Structure (SMILES) | Pre-emergence action against SETVI (Setaria viridis [1]) | Pre-emergence action against MATIN (Matricaria inodora [2]; 80 g/ha) | Post-emergence action against DIGSA in % (Digitaria sanguinalis [3]; 5 g/ha) | Post-emergence action against DIGSA in % (Digitaria sanguinalis [3]; 20 g/ha) | Post-emergence action against ALOMY (Alopecurus myosuroides [4]; 5 g/ha) | Post-emergence action against ALOMY (Alopecurus myosuroides [4]; 20 g/ha) | Pre-emergence action against AMARE (Amaranthus retroflexus [5]; 20 g/ha) | Pre-emergence action against AMARE (Amaranthus retroflexus [5]; 80 g/ha) | Pre-emergence action against ALOMY (Alopecurus myosuroides [6]) | Post-emergence action against PHBPU in % (Pharbitis purpurea; 5 g/ha) | Pre-emergence action against ECHCG (Echinochloa crus-galli [7]) | Pre-emergence action against ABUTH (Abutilon theophrasti [8]; 80 g/ha) | Post-emergence action against AMARE in % (Amaranthus retroflexus [9]; 5 g/ha) | Post-emergence action against AMARE in % (Amaranthus retroflexus [9]; 20 g/ha) | Post-emergence action against VIOTR in % (Viola tricolor [10]; 20 g/ha) | Post-emergence action against ECHCG in % (Echinochloa crus-galli [11]; 5 g/ha) | Post-emergence action against ECHCG in % (Echinochloa crus-galli [11]; 20 g/ha) | Post-emergence action against AVEFA in % (Avena fatua [12]) | Pre-emergence action against VIOTR (Viola tricolor [14]; 80 g/ha) | Pre-emergence action against DIGSA (Digitaria sanguinalis [15]; 80 g/ha) | further results
1 | CCN(CC)C(=O)c1c(C(F)(F)F)ccc(C(=O)Nc2nnnn2C)c1C [Example 1-31] | 100% | 100% | 80% | 90% | 80% | 90% | 100% | 100% | 100% | 90% | 80% | 100% | 90% | 90% | 90% | 90% | 90% | 80% | 100% | 100% | Post-emergence action against PHBPU in % (Pharbitis purpurea; 20 g/ha): 90%; Post-emergence action against VIOTR in % (Viola tricolor [10]; 5 g/ha): 80%; Pre-emergence action against VERPE (Veronica persica): 90%; Post-emergence action against SETVI in % (Setaria viridis [13]; 5 g/ha): 90%; Post-emergence action against SETVI in % (Setaria viridis [13]; 20 g/ha): 100%; Pre-emergence action against DIGSA (Digitaria sanguinalis [15]; 20 g/ha): 100%
2 | CCN(C(=O)c1c(C(F)(F)F)ccc(C(=O)Nc2nnnn2C)c1C)C1CC1 [Example 1-32] | 100% | 100% | 90% | 90% | 80% | 90% | 90% | 100% | 90% | 80% | 90% | 100% | 90% | 100% | 100% | 100% | 100% | 80% | 100% | 100% | Post-emergence action against PHBPU in % (Pharbitis purpurea; 20 g/ha): 90%; Post-emergence action against VIOTR in % (Viola tricolor [10]; 5 g/ha): 100%; Post-emergence action against SETVI in % (Setaria viridis [13]; 5 g/ha): 80%; Post-emergence action against SETVI in % (Setaria viridis [13]; 20 g/ha): 90%; Pre-emergence action against VIOTR (Viola tricolor [14]; 20 g/ha): 80%; Pre-emergence action against DIGSA (Digitaria sanguinalis [15]; 20 g/ha): 90%
3 | CCN(CC)C(=O)c1c(C(F)(F)F)ccc(C(=O)Nc2nnnn2C)c1Cl [Example 1-135] | 100% | 100% | 90% | 90% | 80% | 90% | 100% | 100% | 100% |  | 90% | 100% | 80% | 80% | 90% | 80% | 90% | 80% | 100% | 100% | Pre-emergence action against MATIN (Matricaria inodora [2]; 20 g/ha): 90%; Post-emergence action against ABUTH (Abutilon theophrasti [16]; 5 g/ha): 80%; Post-emergence action against ABUTH (Abutilon theophrasti [16]; 20 g/ha): 90%; Pre-emergence action against ABUTH (Abutilon theophrasti [8]; 20 g/ha): 100%; Post-emergence action against MATIN in % (Matricaria inodora [17]): 80%; Pre-emergence action against VERPE (Veronica persica): 90%; Pre-emergence action against AVEFA (Avena fatua [18]): 90%; Pre-emergence action against VIOTR (Viola tricolor [14]; 20 g/ha): 100%
